The target of one assay is T1, RET (658-1114) (Homo sapiens, UniProt P07949).
T1 construct: 658-1114; expressed in transfected cells; host or cells: 293T.144 (293T cells, generated in-house)
T1 sequence (P07949 658-1114): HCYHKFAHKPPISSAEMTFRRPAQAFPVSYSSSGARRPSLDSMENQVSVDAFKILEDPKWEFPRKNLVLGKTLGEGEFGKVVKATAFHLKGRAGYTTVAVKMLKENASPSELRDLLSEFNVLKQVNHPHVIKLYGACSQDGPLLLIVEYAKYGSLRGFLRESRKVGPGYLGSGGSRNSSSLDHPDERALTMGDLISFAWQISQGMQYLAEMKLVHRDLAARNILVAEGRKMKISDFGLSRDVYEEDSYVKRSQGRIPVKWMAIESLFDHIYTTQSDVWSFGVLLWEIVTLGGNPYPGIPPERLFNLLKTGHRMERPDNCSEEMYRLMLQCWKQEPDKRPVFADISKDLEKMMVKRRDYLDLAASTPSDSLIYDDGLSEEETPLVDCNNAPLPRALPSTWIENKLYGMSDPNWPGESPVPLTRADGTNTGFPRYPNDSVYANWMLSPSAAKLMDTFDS
The assay is described as follows: HiBiT-Degradation, RET wild-type degradation assay (Nano-Glo HiBiT Lytic), 293T.144 cells. Type of assay: cell-based. To be noted: for Emax / DC50: 6.0 hours; for Emax: % remaining protein, read-out: 293T.144 RET (658-1114) 6.0 hours (Emax); for DC50: half-maximal degradation concentration, read-out: 293T.144 RET (658-1114) 6.0 hours (DC50). A digest of the protocol:
(§1)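 Degradation quantified by HiBiT lytic luminescence in 293T cells expressing tagged WT or G810R RET kinase domain after 6 h dosing up to 10 μM; DC50 and Emax fitted.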

The next assay has as its target T2, RET(KD: 658-1114 G810R) (Homo sapiens, UniProt P07949, G810R).
T2 construct: 658-1114; expressed in transfected cells; host or cells: 293T.165 (293T cells, generated in-house)
T2 sequence (P07949 658-1114 G810R): T1 sequence (P07949 658-1114) with G153R
Nature of the assay: HiBiT-Degradation, RET G810R degradation assay (Nano-Glo HiBiT Lytic), 293T.165 cells. Type of assay: cell-based. To be noted: for Emax / DC50: 6.0 hours; for Emax: % remaining protein, read-out: 293T.165 RET(KD: 658-1114 G810R) 6.0 hours (Emax); for DC50: half-maximal degradation concentration, read-out: 293T.165 RET(KD: 658-1114 G810R) 6.0 hours (DC50). The gist of the method:
as §1

Substitutions are numbered along the chain they refer to.

Regarding `N#Cc1cnn2cc(-c3cnn([C@H]4CC[C@H](N5CCC(c6ccc(NC7CCC(=O)NC7=O)cc6F)CC5)CC4)c3)nc(-c3ccc(N4CCC5(CC4)OCc4cccnc45)nc3)c12` (single isomer, unassigned) [Compound 148, 4-(6-(5H-Spiro[furo[3,4-b]pyridine-7,4′-piperidin]-1′-yl)pyridin-3-yl)-6-(1-((1r, 4r)-4-(4-(4-((2,6-dioxopiperidin-3-yl)amino)-2-fluorophenyl)piperidin-1-yl)cyclohexyl)-1H-pyrazol-4-yl)pyrazolo[1,5-a]pyrazine-3-carbonitrile], on RET (658-1114), the “293T.144 RET (658-1114) 6.0 hours (IP) [nM]” value (from here on “293T.144 RET”) is “++++ (<50 nM = ++++)”, the Emax is less than 30% and the DC50 was less than 50 nM. On RET(KD: 658-1114 G810R), the “293T.165 RET(KD: 658-1114 G810R) 6.0 hours (IP) [nM]” value is reported as “++++ (<50 nM = ++++)”, the Emax was less than 30% and the half-maximal degradation concentration (DC50) was less than 50 nM.

As to `N#Cc1cnn2cc(-c3cnn(C4CCC(N5CCN(c6ccc(NC7CCC(=O)NC7=O)cc6F)CC5)CC4)c3)nc(-c3ccc(N4C[C@H]5COC[C@@H](C4)N5CC4CCC(F)(F)CC4)nc3)c12` (single isomer, unassigned) [Compound 150], on RET (658-1114), the “293T.144 RET” value is reported as “++++ (<50 nM = ++++)”, the Emax was less than 30% and the half-maximal degradation concentration (DC50) is less than 50 nM. Moreover, on RET(KD: 658-1114 G810R), the “293T.165 RET(KD: 658-1114 G810R) 6.0 hours (IP) [nM]” value is reported as “++++ (<50 nM = ++++)” and the maximal effect (Emax) was less than 30%.

Take `N#Cc1cnn2cc(-c3cnn([C@H]4CC[C@@H](N5CCN(c6ccc(NC7CCC(=O)NC7=O)cc6F)CC5)CC4)c3)nc(-c3ccc(N4C[C@H]5COC[C@@H](C4)N5Cc4ccc(F)cn4)nc3)c12` (single isomer, unassigned) [Compound 151]: on RET (658-1114), the “293T.144 RET” value is listed as “++++ (<50 nM = ++++)”, the Emax is less than 30% and the 50% degradation concentration (DC50) is less than 50 nM. On RET(KD: 658-1114 G810R), the “293T.165 RET(KD: 658-1114 G810R) 6.0 hours (IP) [nM]” value is “++++ (<50 nM = ++++)”, the Emax was less than 30% and the half-maximal degradation concentration (DC50) is less than 50 nM.

On to `COc1ccc(CN2[C@@H]3COC[C@H]2CN(c2ccc(-c4nc(-c5cnn([C@H]6CC[C@@H](N7CCN(c8cc9c(cc8F)c(N8CCC(=O)NC8=O)nn9C)CC7)CC6)c5)cn5ncc(C#N)c45)cn2)C3)cn1` (single isomer, unassigned) [Compound 152], for which, at RET (658-1114), the “293T.144 RET” value is reported as “++++ (<50 nM = ++++)”, the Emax is less than 30% and the DC50 is less than 50 nM. Also, on RET(KD: 658-1114 G810R), the “293T.165 RET(KD: 658-1114 G810R) 6.0 hours (IP) [nM]” value is reported as “++++ (<50 nM = ++++)”, the Emax was less than 30% and the 50% degradation concentration (DC50) was less than 50 nM.

As to `Cn1nc(N2CCC(=O)NC2=O)c2cc(F)c(N3CCN([C@H]4CC[C@@H](n5cc(-c6cn7ncc(C#N)c7c(-c7ccc(N8C[C@H]9COC[C@@H](C8)N9Cc8ccc(=O)[nH]c8)nc7)n6)cn5)CC4)CC3)cc21` (single isomer, unassigned) [Compound 153], at RET (658-1114), the “293T.144 RET” value is given as “++++ (<50 nM = ++++)”, the Emax was less than 30% and the half-maximal degradation concentration (DC50) was less than 50 nM. Moreover, at RET(KD: 658-1114 G810R), the “293T.165 RET(KD: 658-1114 G810R) 6.0 hours (IP) [nM]” value is given as “++++ (<50 nM = ++++)”, the Emax was less than 30% and the DC50 is less than 100 nM.

`N#Cc1cnn2cc(-c3cnn([C@H]4CC[C@H](N5CCC(c6ccc(NC7CCC(=O)NC7=O)cc6F)CC5)CC4)c3)nc(-c3ccc(N4CC5COCC(C4)N5Cc4ccccn4)nc3)c12` (single isomer, unassigned) [Compound 154, 6-[1-[4-[4-[4-[(2,6-dioxo-3-piperidyl)amino]-2-fluoro-phenyl]-1-piperidyl]cyclohexyl]pyrazol-4-yl]-4-[6-[9-(2-pyridylmethyl)-3-oxa-7,9-diazabicyclo[3.3.1]nonan-7-yl]-3-pyridyl]pyrazolo[1,5-a]pyrazine-3-carbonitrile]: at RET (658-1114), the “293T.144 RET” value is “++++ (<50 nM = ++++)”, the maximal effect (Emax) is less than 30% and the half-maximal degradation concentration (DC50) is less than 50 nM. Further, on RET(KD: 658-1114 G810R), the “293T.165 RET(KD: 658-1114 G810R) 6.0 hours (IP) [nM]” value was “++++ (<50 nM = ++++)”, the Emax is less than 30% and the DC50 is less than 50 nM.

As for `N#Cc1cnn2cc(-c3cnn([C@H]4CC[C@H](N5CCN(c6ccc(N[C@H]7CCC(=O)NC7=O)cc6F)CC5)CC4)c3)nc(-c3ccc(N4CC5COCC(C4)N5Cc4ccccn4)nc3)c12` (single isomer, unassigned) [Compound 155], on RET (658-1114), the “293T.144 RET” value was “++++ (<50 nM = ++++)”, the Emax is less than 30% and the DC50 is less than 50 nM. Also, at RET(KD: 658-1114 G810R), the “293T.165 RET(KD: 658-1114 G810R) 6.0 hours (IP) [nM]” value was “++++ (<50 nM = ++++)”, the Emax is less than 30% and the DC50 is less than 50 nM.

Consider `N#Cc1cnn2cc(-c3cnn([C@H]4CC[C@H](N5CCN(c6ccc(N[C@@H]7CCC(=O)NC7=O)cc6F)CC5)CC4)c3)nc(-c3ccc(N4CC5COCC(C4)N5Cc4ccccn4)nc3)c12` (single isomer, unassigned) [Compound 156], for which, on RET (658-1114), the “293T.144 RET” value is on record as “++++ (<50 nM = ++++)”, the Emax is less than 30% and the half-maximal degradation concentration (DC50) was less than 50 nM. Further, at RET(KD: 658-1114 G810R), the “293T.165 RET(KD: 658-1114 G810R) 6.0 hours (IP) [nM]” value is on record as “++++ (<50 nM = ++++)”, the Emax is less than 30% and the DC50 is less than 50 nM.

On to `N#Cc1cnn2cc(-c3cnn([C@H]4CC[C@H](N5CCN(c6ccc(NC7CCC(=O)NC7=O)cc6F)CC5)CC4)c3)nc(-c3ccc(N4CC5COCC(C4)N5Cc4ccccn4)nc3)c12` (single isomer, unassigned) [Compound 157, 6-(1-((1r, 4r)-4-(4-(4-((2,6-dioxopiperidin-3-yl)amino)-2-fluorophenyl)piperazin-1-yl)cyclohexyl)-1H-pyrazol-4-yl)-4-(6-(9-(pyridin-2-ylmethyl)-3-oxa-7,9-diazabicyclo[3.3.1]nonan-7-yl)pyridin-3-yl)pyrazolo[1,5-a]pyrazine-3-carbonitrile], for which, at RET (658-1114), the “293T.144 RET” value is “++++ (<50 nM = ++++)”, the maximal response (Emax) is less than 30% and the 50% degradation concentration (DC50) was less than 50 nM. Also, at RET(KD: 658-1114 G810R), the “293T.165 RET(KD: 658-1114 G810R) 6.0 hours (IP) [nM]” value was “++++ (<50 nM = ++++)”, the maximal effect (Emax) was less than 30% and the DC50 is less than 50 nM.

Regarding `CC(C)(C)CC(=O)N1[C@@H]2COC[C@H]1CN(c1ccc(-c3nc(-c4cnn([C@H]5CC[C@@H](N6CCN(c7ccc(NC8CCC(=O)NC8=O)cc7F)CC6)CC5)c4)cn4ncc(C#N)c34)cn1)C2` (single isomer, unassigned) [Compound 158], on RET (658-1114), the “293T.144 RET” value is reported as “++++ (<50 nM = ++++)”, the Emax was less than 30% and the 50% degradation concentration (DC50) was less than 50 nM. In addition, on RET(KD: 658-1114 G810R), the “293T.165 RET(KD: 658-1114 G810R) 6.0 hours (IP) [nM]” value was “++++ (<50 nM = ++++)”, the maximal effect (Emax) was less than 30% and the DC50 is less than 50 nM.

Regarding `CC(C)(C)OC(=O)N1[C@@H]2COC[C@H]1CN(c1ccc(-c3nc(-c4cnn([C@H]5CC[C@@H](N6CCN(c7ccc(NC8CCC(=O)NC8=O)cc7F)CC6)CC5)c4)cn4ncc(C#N)c34)cn1)C2` (single isomer, unassigned) [Compound 159], at RET (658-1114), the “293T.144 RET” value is “++++ (<50 nM = ++++)”, the Emax was less than 30% and the 50% degradation concentration (DC50) was less than 50 nM. In addition, on RET(KD: 658-1114 G810R), the “293T.165 RET(KD: 658-1114 G810R) 6.0 hours (IP) [nM]” value is on record as “++++ (<50 nM = ++++)”, the maximal effect (Emax) is less than 30% and the 50% degradation concentration (DC50) is less than 50 nM.

On to `COc1cc(N2CCN([C@H]3CC[C@H](n4cc(-c5cn6ncc(C#N)c6c(-c6ccc(N7C[C@H]8COC[C@@H](C7)N8CC7CCOCC7)nc6)n5)cn4)CC3)CC2)c(F)cc1NC1CCC(=O)NC1=O` (single isomer, unassigned) [Compound 166], for which, at RET (658-1114), the “293T.144 RET” value is on record as “++++ (<50 nM = ++++)”, the Emax was less than 30% and the DC50 is less than 50 nM. Moreover, at RET(KD: 658-1114 G810R), the “293T.165 RET(KD: 658-1114 G810R) 6.0 hours (IP) [nM]” value is “++++ (<50 nM = ++++)”, the maximum response (Emax) is less than 30% and the DC50 was less than 100 nM.

The values are drawn from patent publication US12661410B2, “Compounds for targeted degradation of RET” (C4 Therapeutics, Inc., priority 2020, dated 2026).
